Measured values from US20130072459A1, “PHARMACEUTICAL COMPOSITION FOR THE PREVENTION OR THE TREATMENT OF NON-ALCOHOLIC FATTY LIVER DISEASE AND THE METHOD FOR PREVENTION OR TREATMENT OF NON-ALCOHOLIC FATTY LIVER DISEASE USING THE SAME” (priority 2010, published 2013).

What was measured:
Format in all cases: in vivo, C57BL/6 mice
[1] = tested on: high fat diet-induced simple steatosis; experiment: Preventive effects on high fat diet-induced simple steatosis in mice (drug-mixed diet, 8/16/24 weeks); settings: for serum alanine aminotransferase (ALT), result in words: at 16 weeks and 24 weeks; for serum alanine aminotransferase (ALT), result in words / hepatic triglyceride content, result in words: vs high fat diet-fed group; for hepatic triglyceride content, result in words: hepatic triglyceride analysis and histological analysis
Protocol: 6-week old male C57BL/6 mice were stabilized and then divided into 5 groups. One group was given a standard diet containing 10% fat (trade name: D12450B, manufactured by Research Diets), and one group was given a high fat diet containing 60% fat (trade name: D12492, manufactured by Research Diets). Remaining 3 groups as drug-treated groups were given a drug-mixed diet specially formulated by mixing a high fat diet and a drug. With regard to tartrate of Compound 1, in order to supply 100 mg/kg and 300 mg/kg which are daily target doses of tartrate of Compound 1 based on the daily average high fat diet consumption amount, diets were formulated by mixing a high fat diet and 0.2% by weight and 0.5% by weight of tartrate of Compound 1, respectively. With regard to sitagliptin phosphate, in order to supply 300 mg/kg which is a daily target dose based on the daily average high fat diet consumption amount, a diet was formulated by mixing a high fat diet and about 0.5% by weight of sitagliptin phosphate. Individual drug-treated groups were given the drug-mixed diets thus formulated. 8 weeks, 16 weeks, and 24 weeks after a supply of each diet, animals were dissected and sera were separated. Then, serum ALT levels (alanine aminotransferase, GPT, glutamic pyruvate transaminase) were measured using a blood analyzer (Table 1 and FIG. 1). The excised liver was homogenized in a 5(v/v) % Triton-X solution, and a triglyceride working reagent [which was prepared by mixing a free glycerol reagent (F6428, Sigma) and a triglyceride reagent (T2449, Sigma) in a ratio of 4:1(v/v)] was added thereto, followed by measurement of an absorbance at 540 nm to determine the content of triglyceride (Table 1 and FIG. 2). In addition, in order to observe histological fat distribution, a portion of the excised liver was fixed in a 10(v/v) % formalin solution and then a tissue sample was prepared, followed by hematoxylin & eosin staining and photographing using an image analysis program (computerized image analysis) (FIG. 3, the violet-stained portion represents a normal liver tissue, and white-stained portion represents lipid droplets).

[2] = tested on: high fat diet-induced simple steatosis; experiment: Non-alcoholic fatty liver-preventing effects on high fat diet-induced simple steatosis in mice (oral, 28 days); settings: for Triglyceride increase inhibition (%) relative to high fat diet-fed group / Triglyceride increment (%) relative to standard diet-fed group: 28 days, high fat diet; for lipid droplets in liver tissue sample (histological evaluation), result in words: HE staining, FIG. 8; for maximum decrement of the hepatic triglyceride content relative to the high fat diet-fed group: maximum over the doses tested
Protocol: 7-week old male C57BL/6 mice were stabilized and then divided into 9 groups (n=9) according to the body weight and blood glucose level. A standard diet-fed group and a high fat diet-fed group were orally administered a vehicle solution (0.5% MC (methylene cellulose)) of each diet once a day at a dose of 10 ml/kg, and the remaining groups were orally given once a day for 28 days a high fat diet in conjunction with tartrate of Compound 1 at doses of 30, 100 and 300 mg/kg, sitagliptin phosphate at doses of 100 and 300 mg/kg, and vildagliptin at doses of 100 mg/kg and 300 mg/kg, respectively, according to the designated groups. 24 hours after the final oral administration, animals were dissected and the excised liver was homogenized in a 5(v/v) % Triton-X solution to which a triglyceride working reagent was then added, followed by measurement of an absorbance at 540 nm to determine the content of triglyceride (Table 2). In addition, a portion of the excised liver was fixed in a 10(v/v) % formalin solution and then a tissue sample was prepared, followed by hematoxylin & eosin(HE) staining and photographing (FIG. 8).

TGF-β1 = TGF-β1 mRNA expression in liver, CCl4-induced acute hepatic damage mouse model; settings: for TGF-β1 expression inhibition rate (% CCl4 control group) / TGF-β1 expression (normalized by actin): 3 days; for TGF-β1 expression (normalized by actin): CCl4 0.1 ml/kg i.p.; for maximum decrement in TGF-β1 mRNA expression of the liver relative to the CCl4 control group: maximum over the doses tested; for expression of TGF-β1 mRNA of the liver, result in words: vs CCl4 group
Protocol: In order to investigate inhibitory effects of compounds of the present invention on expression of TGF-β1 which is known to play a crucial role in a fibrosis process of hepatocytes in a CCl4-induced acute hepatic damage mouse model, the following experiment was carried out. 7-week old male C57BL/6 mice were stabilized and divided into 9 groups (n=7) according to the body weight, followed by intraperitoneal administration of CCl4 (0.1 ml/kg). The normal control group was administered an olive oil. The control group was orally administered a vehicle solution (0.5% MC) once a day at a dose of 10 ml/kg, at intervals of 24 hours for 3 days. The remaining groups were orally administered once a day tartrate of Compound 1 at doses of 30, 100 and 300 mg/kg, sitagliptin phosphate (prepared according to the method described in WO2004/085378 or WO2005/003135) at doses of 100 and 300 mg/kg, and vildagliptin (Trademax, China) at doses of 100 and 300 mg/kg, respectively, according to the designated groups. 1 hour after the final oral administration, animals were dissected and the excised liver was subjected to evaluation of TGF-β1 mRNA expression. The liver tissue stored in liquid nitrogen was homogenized in a TRIZOL solution and then the total RNAs were extracted. The isolated RNAs were diluted to a concentration of 1 μg/μL in 0.1(v/v) % DEPC (diethyl pyrocarbonate), and then the RNA mixture [2 μg/μL each RNA+2 μL of 0.5 μg/μL oligo d(T)15+up to 15 μL of 0.1% DEPC water] was incubated using a PCR apparatus at 72° C. for 5 minutes, followed by quenching on ice. The mixture [1 μL of PCR nucleotide mix+5 μL of 5×MMLV RT bf.(Promega, M531A)+1 μL of […] M-MLV reverse] was prepared, and then subjected to elongation at 42° C. for 60 minutes, denaturation at 95° C. for 5 minutes and quenching at 8° C. to synthesize cDNAs which were stored at −20° C. until subsequent use. In order to carry out RT-PCR, the mixture [1 μL of 20 pmol each Primer+9.5 μL of Nuclease-free water] was prepared and then 2 μL of each cDNA was placed in sterile PCR tubes to which 12.5 μL of remix Taq™ (RR003A, TaKaRa) was then added, followed by mixing. PCR was carried out under the following conditions (Table 4), using Thermal Cycler (PTC-200, MJ Research). PCT products were electrophoresed and analyzed using an Image Analyzer (Vilber Lourmat). Using β-actin expression, the expression of a target gene TGF-β1 was subjected to normalization (FIG. 11).

[3] = 8 weeks, high fat diet + 0.5% drug (target 300 mg/kg/day)
[4] = 16 weeks, high fat diet + 0.5% drug (target 300 mg/kg/day)
[5] = 24 weeks, high fat diet + 0.5% drug (target 300 mg/kg/day)
[6] = 8 weeks, high fat diet + 0.2% drug (target 100 mg/kg/day)
[7] = 16 weeks, high fat diet + 0.2% drug (target 100 mg/kg/day)
[8] = 24 weeks, high fat diet + 0.2% drug (target 100 mg/kg/day)

Row | Structure (SMILES) | Hepatic TG [1, 3] [mg/g wet liver] | Plasma ALT [1, 3] [U/L] | Hepatic TG [1, 4] [mg/g wet liver] | Plasma ALT [1, 4] [U/L] | Hepatic TG [1, 5] [mg/g wet liver] | Plasma ALT [1, 5] [U/L] | serum alanine aminotransferase (ALT), result in words [1] | hepatic triglyceride content, result in words [1] | Triglyceride increase inhibition (%) relative to high fat diet-fed group ([2]; 100 mg/kg oral once a day) [%] | Triglyceride increment (%) relative to standard diet-fed group ([2]; 100 mg/kg oral once a day) [%] | Triglyceride increase inhibition (%) relative to high fat diet-fed group ([2]; 300 mg/kg oral once a day) [%] | Triglyceride increment (%) relative to standard diet-fed group ([2]; 300 mg/kg oral once a day) [%] | lipid droplets in liver tissue sample (histological evaluation), result in words [2] | maximum decrement of the hepatic triglyceride content relative to the high fat diet-fed group [2] [%] | TGF-β1 expression inhibition rate (% CCl4 control group) (TGF-β1; 100 mg/kg oral once a day) [%] | TGF-β1 expression (normalized by actin) (TGF-β1; 100 mg/kg oral once a day) | TGF-β1 expression inhibition rate (% CCl4 control group) (TGF-β1; 300 mg/kg oral once a day) [%] | TGF-β1 expression (normalized by actin) (TGF-β1; 300 mg/kg oral once a day) | maximum decrement in TGF-β1 mRNA expression of the liver relative to the CCl4 control group (TGF-β1) [%] | expression of TGF-β1 mRNA of the liver, result in words (TGF-β1) | also measured
1 | N[C@@H](CC(=O)N1CCn2c(nnc2C(F)(F)F)C1)Cc1cc(F)c(F)cc1F [sitagliptin phosphate, sitagliptin] | 11.8 ± 2.7 | 26.5 ± 1.8 | 10.0 ± 1.2 | 22.2 ± 1.3 | 36.8 ± 6.6 | 27.0 ± 1.7 | significant decreases | significant decrease | 61 | 21 | 15 | 45 | reduction of lipid droplets | 61 | 41 | 1.13 ± 0.19 | −17 | 1.26 ± 0.13 | 41 | decreased expression | –
2 | CC(C)(C)OC[C@@H]1C(=O)NCCN1C(=O)C[C@H](N)Cc1cc(F)c(F)cc1F [tartrate of Compound 1, (R)-4-[(R)-3-amino-4-(2,4,5-trifluorophenyl)-butanoyl]-3-(t-butoxymethyl)piperazin-2-one] | 7.4 ± 2.0 | 39.3 ± 3.6 | 15.8 ± 2.0 | 27.5 ± 1.5 | 15.1 ± 3.5 | 43.8 ± 4.3 | significant decreases | significant decrease | 12 | 47 | 81 | 11 | reduction of lipid droplets | 81 | 128 | 0.93 ± 0.10 | 100 | 1.00 ± 0.13 | 135 | normalization | Hepatic TG [1, 6]: 15.5 ± 2.0 mg/g wet liver; Plasma ALT [1, 6]: 20.6 ± 0.9 U/L; Hepatic TG [1, 7]: 21.5 ± 0.7 mg/g wet liver; Plasma ALT [1, 7]: 20.5 ± 1.2 U/L; Hepatic TG [1, 8]: 38.2 ± 5.8 mg/g wet liver; Plasma ALT [1, 8]: 37.5 ± 4.2 U/L; Triglyceride increase inhibition (%) relative to high fat diet-fed group ([2]; 30 mg/kg oral once a day): 34%; Triglyceride increment (%) relative to standard diet-fed group ([2]; 30 mg/kg oral once a day): 35%; TGF-β1 expression inhibition rate (% CCl4 control group) (TGF-β1; 30 mg/kg oral once a day): 135%; TGF-β1 expression (normalized by actin) (TGF-β1; 30 mg/kg oral once a day): 0.92 ± 0.13
